The record followed here is patent US6699902B2, “Acetyloxymethyl esters and methods for using the same” (Beacon Laboratories, Inc., priority 2000, dated 2004).

This assay deals with PC-3 prostate breast cancer cells. The assay can be described thus: EDR assay, anti-proliferation against PC-3 cells (3H-thymidine incorporation in soft agar). The class given is cell-based. The following applies: Homo sapiens, PC3 cell line, five days incubation, 3H-TdR incorporation. The method, then:
Compounds prepared according to Examples 1-7 were tested for anti-proliferation against PC-3 prostate […] cancer cells. Butyric acid and trichostatin, a potent HDAC inhibitor, were used as reference compounds. Both compounds were purchased from Sigma-Aldrich, Milwaukee, Wis.
The PC3 cell line was maintained in RPMI supplemented with 10% fetal calf serum and antibiotics. The EDR assay was performed as described by Kern and Weisenthal in “Highly Specific Prediction of Antineoplastic Drug Resistance With An In Vitro Assay Using Suprapharmacologic Drug Exposures,” J. Nat. Cancer Inst., 82:582-588 (1990); and Fruehauf and Bosanquet, “In vitro Determination of Drug Response: A Discussion of Clinical Applications,” PPO Updates 7(12):1-16 (1993). Cells were suspended in 0.12% soft agar in complete medium and plated (2,000 cells per well, as determined by preliminary experiments) in different drug concentrations onto a 0.4% agarose underlayer in 24-well plates. Plating cells on agarose underlayers supports the proliferation only of the transformed cells, ensuring that the growth signal stems from the malignant component of the tumor.
All compounds were dissolved in DMSO to 200× stock solutions. Stock solutions were diluted to 20× working solutions using the tissue culture medium, serially diluted and added to the 24-well plates. The concentration range was 0.001 μM to 0.3 μM for trichostatin and 10 μM-1,000 μM for the other compounds. No significant changes in pH of the culture medium were observed under the above conditions. Diluent control wells contained PC3 cells treated with DMSO, at the dilutions used for appropriate drug treatment. All experimental points were represented by two separate wells (duplicates). Positive controls were determined using at least two wells treated with an extremely high dose of cisplatin, an anti-cancer agent. Four wells containing tumor cells that were not treated with drugs served as negative controls in each experiment.
Cells were incubated with drugs under standard culture conditions for five days. Cultures were pulsed with tritiated thymidine (^3H-TdR, New Life Science Products, Boston, Mass.) at 5 μCi per well for the last 48 hours of the culture period. Cell culture plates were then heated to 90° C. to liquefy the agarose, and cells were harvested onto glass fiber filters, which were then placed into counting vials containing liquid scintillation fluid. The radioactivity trapped on the filters was counted with a Beckman scintillation counter. The fraction of surviving cells was determined by comparing ^3H-TdR incorporation in treated (experimental points) and untreated (negative control) wells. All drug concentrations are presented as μM, allowing for normalization of drug response curves and direct comparison of the effects of the drugs. Microsoft Excel was used to organize the raw data on EDR experiments, and the SigmaPlot program was utilized to generate drug response curves. All drug response curves were as approximated as sigmoidal equations (characteristic for typical drug response curves) to fit the data. IC50 values were determined using the approximated sigmoidal curves and expressed as μM.

In general, IC50 refers to the concentration at which inhibition is half-maximal. Read a high IC50 as weaker potency. Take `CC(=O)OCOC(=O)C=CSc1ccccc1` [3-(phenylthio)acryloyloxymethyl acetate]: the IC50 is 30 µM.

In the case of `CC(=O)OCOC(=O)CCCC1CCCCC1` [4-cyclohexanebutyroyloxymethyl acetate], half-maximal inhibition (IC50) was put at 23.2 µM.

In turn, `CC(=O)OCOC(=O)C=CC=Cc1ccccc1` [5-phenyl-2,4-pentadienoyloxymethyl acetate] came in with an IC50 of 20 µM.

Regarding `CC(=O)OCOC(=O)CC=CC=Cc1ccccc1` [6-phenyl-3,5-hexadienoyloxymethyl acetate], the IC50 worked out at 18 µM. This IC50 and that of the compound before are within 1.5-fold of each other.

As for `CC(=O)OCOC(=O)CSCc1ccccc1` [S-benzylthioglycoloyloxymethyl acetate], it took 28.4 µM to reach half-maximal inhibition (IC50).

On to `CCCC(=O)O` [butyric acid, reference compound], for which the IC50 was more than 2000 µM.

`CC(=O)OCOC(=O)C=Cc1ccccc1` [cinnamoyloxymethyl acetate] had an IC50 of 12.5 µM. This lies in the double-digit micromolar range.

`CC(=O)OCOC(=O)C#Cc1ccccc1` [phenylpropioloyloxymethyl acetate] returned an IC50 of 25 µM. Compared with the last compound, the IC50 is about 2-fold higher.

As for `CC(/C=C/C(=O)NO)=C\[C@@H](C)C(=O)c1ccc(N(C)C)cc1` [trichostatin, reference compound], it took 0.005 µM to reach half-maximal inhibition (IC50).
